Laboratory results from patent publication US20110190272A1, “CHEMICAL COMPOUNDS” (ASTRAZENECA AB, priority 2008, published 2011).
pIC50: −log10 of the molar value.

target: T1, CSF-1R (Homo sapiens, UniProt P07333); experiment: Assay 1: CSF-1R In Vitro AlphaScreen Assay; assay type: biochemical; conditions: purified His-tagged kinase domain of CSF-1R, 90 μM ATP
T1 construct: The His-tagged kinase domain of CSF-1R (i.e., amino acids 568-912, GeneBank ID NM_005211); His; made in house; host or cells: baculovirus infected SF+Express insect cells
T1 sequence (P07333 568-912): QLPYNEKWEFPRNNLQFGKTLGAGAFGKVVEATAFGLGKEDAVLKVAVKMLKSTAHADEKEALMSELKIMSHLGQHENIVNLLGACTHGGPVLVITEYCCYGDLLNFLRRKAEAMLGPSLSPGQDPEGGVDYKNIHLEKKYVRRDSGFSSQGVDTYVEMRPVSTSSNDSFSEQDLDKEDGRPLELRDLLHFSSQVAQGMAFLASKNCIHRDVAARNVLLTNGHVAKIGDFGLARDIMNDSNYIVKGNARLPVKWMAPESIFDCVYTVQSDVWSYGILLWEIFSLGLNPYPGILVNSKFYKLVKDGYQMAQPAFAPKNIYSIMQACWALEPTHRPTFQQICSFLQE
Method: The phosphorylation of the CSF-1R substrate in the presence and absence of the compound of interest was determined. […] Plates were incubated at 25° C. for 18 hours in the dark. Phosphorylated substrate was detected by an EnVision plate reader (Perkin Elmer) 680 nm excitation, 520-620 nm emission. Data was graphed and IC50s calculated using Excel Fit (Microsoft).

Structure (SMILES) | pIC50
COc1cc2nnc(C(N)=O)c(Nc3cccc(Cl)c3F)c2cc1OC [Example 3, 4-[(3-Chloro-2-fluorophenyl)amino]-6,7-dimethoxycinnoline-3-carboxamide] | > 8.52

target: T1, CSF-1R; experiment: Assay 2: CSF1R In-Vitro AlphaScreen Assay; assay type: biochemical; conditions: purified His-tagged kinase domain of CSF-1R, 12 mM ATP in mix
Method: Assay 2: CSF1R In-Vitro AlphaScreen Assay
Activity of purified CSF-1R was determined in-vitro using an Amplified Luminescent Proximity Homogeneous Assay (ALPHA) (Perkin Elmer, Mass.), which measures phosphorylation of CSF-1R substrate, biotinylated […] peptide (pEY-HTRF CisBio 61GT0BLD), as described below. The His-tagged kinase domain of CSF-1R (i.e., amino acids 568-912, GeneBank ID NM_005211) was purified from baculovirus infected SF+Express insect cells (1.4×10^6 cells/ml), French pressed and chromatographed through subsequent QIAgen Ni-NTA, Superflow Mono Q HR 10/10, and Superdex 200 SEC columns.
The phosphorylation of the CSF-1R substrate in the presence and absence of the compound of interest was determined. Briefly, 5 ul of Enzyme/Substrate/adenosine triphosphate (ATP) mix consisting of 0.46 nM of purified CSF-1R, 12 nM pEY substrate, and 12 mM ATP in 1.2× buffer was preincubated with 2 ul of compound for 20 minutes at 25° C. Reactions were initiated with 5 ul of Metal mix consisting of 24 mM MgCl2 in 1.2× buffer and incubated at 25° C. for 90 minutes and reactions were stopped by addition of 5 ul of Detection mix consisting of 20 mM HEPES, 102 mM ethylenediamine tetraacetic acid, 1.65 mg/ml BSA, 136 mM NaCl, 40 ug/ml Streptavidin donor beads (Perkin Elmer, Mass., Catalog #6760002), and 40 ug/ml phosphotyrosine-specific antibody coated acceptor beads (Perkin Elmer, Mass., Catalog #6760620). Plates were incubated at 25° C. for 18 hours in the dark. Phosphorylated substrate was detected by an EnVision plate reader (Perkin Elmer) 680 nm excitation, 520-620 nm emission. Data was graphed and IC50s calculated using Excel Fit (Microsoft).

Structure (SMILES) | pIC50
COc1cc2nnc(C(N)=O)c(Nc3ccc(C)cc3F)c2cc1C1CCN(C(=O)[C@H](C)O)CC1 [Example 70, 4-[(2-Fluoro-4-methylphenyl)amino]-6-{1-[(2S)-2-hydroxypropanoyl]piperidin-4-yl}-7-methoxycinnoline-3-carboxamide] | 7.62
COc1cc2nnc(C(N)=O)c(Nc3ccc(C)cc3F)c2cc1CN1CCOCC1 [Example 73, 4-[(2-Fluoro-4-methylphenyl)amino]-7-methoxy-6-(morpholin-4-ylmethyl)cinnoline-3-carboxamide] | 7.28
Cc1ccc(Nc2c(C(N)=O)nnc3cc(N4CCN(CCO)CC4)ccc23)c(F)c1 [Example 57, 4-[(2-Fluoro-4-methylphenyl)amino]-7-[4-(2-hydroxyethyl)piperazin-1-yl]cinnoline-3-carboxamide] | 8.10
COc1cc2nnc(C(N)=O)c(Nc3ccc(C)cc3F)c2cc1C1CCN(CC(F)F)CC1 [Example 71, 6-[1-(2,2-Difluoroethyl)piperidin-4-yl]-4-[(2-fluoro-4-methylphenyl)amino]-7-methoxycinnoline-3-carboxamide] | 7.41
COc1cc2nnc(C(N)=O)c(Nc3ccc(C)cc3F)c2cc1N1C[C@@H](C)N(CCO)[C@@H](C)C1 [Example 63, 4-[(2-Fluoro-4-methylphenyl)amino]-6-[(3R,5S)-4-(2-hydroxyethyl)-3,5-dimethylpiperazin-1-yl]-7-methoxycinnoline-3-carboxamide] | 7.92
Cc1ccc(Nc2c(C(N)=O)nnc3cc(N4CCN(S(C)(=O)=O)CC4)ccc23)c(F)c1 [Example 56, 4-[(2-Fluoro-4-methylphenyl)amino]-7-[4-(methylsulfonyl)piperazin-1-yl]cinnoline-3-carboxamide] | 7.96
COCCOC1CCN(c2cc3c(Nc4ccc(C)cc4F)c(C(N)=O)nnc3cc2OC)CC1 [Example 60, 4-[(2-Fluoro-4-methylphenyl)amino]-7-methoxy-6-[4-(2-methoxyethoxy)piperidin-1-yl]cinnoline-3-carboxamide] | 7.41
COc1cc2nnc(C(N)=O)c(Nc3ccc(C)cc3F)c2cc1N1CCN(C(=O)C(C)(C)O)CC1 [Example 69, 4-[(2-Fluoro-4-methylphenyl)amino]-6-[4-(2-hydroxy-2-methylpropanoyl)piperazin-1-yl]-7-methoxycinnoline-3-carboxamide] | 7.64
COc1cc2nnc(C(N)=O)c(Nc3ccc(C)cc3F)c2cc1N1C[C@@H](C)N(C(C)=O)[C@@H](C)C1 [Example 72, 6-[(3R,55)-4-Acetyl-3,5-dimethylpiperazin-1-yl]-4-[(2-fluoro-4-methylphenyl)amino]-7-methoxycinnoline-3-carboxamide] | 7.28

Continued, values first:

pIC50 | Structure (SMILES)
8.52 | Cc1ccc(Nc2c(C(N)=O)nnc3cc(N4CCN(C)CC4)ccc23)c(F)c1 [Example 55, 4-[(2-Fluoro-4-methylphenyl)amino]-7-(4-methylpiperazin-1-yl)cinnoline-3-carboxamide]
8.30 | COc1cc2nnc(C(N)=O)c(Nc3ccc(C)cc3F)c2cc1N1CCN(C[C@H](O)CO)CC1 [Example 67, 6-{4-[(25)-2,3-Dihydroxypropyl]piperazin-1-yl}-4-[(2-fluoro-4-methylphenyl)amino]-7-methoxycinnoline-3-carboxamide]
8.22 | COc1cc2nnc(C(N)=O)c(Nc3ccc(C)cc3F)c2cc1N1CCN(CCS(C)(=O)=O)CC1 [Example 65, 4-[(2-Fluoro-4-methylphenyl)amino]-7-methoxy-6-{4-[2-(methylsulfonyl)ethyl]piperazin-1-yl}cinnoline-3-carboxamide]
> 8.52 | COc1cc2nnc(C(N)=O)c(Nc3ccc(C)cc3F)c2cc1N1CC[C@H](N(C)C)C1 [Example 41, 6-[(3S)-3-(Dimethylamino)pyrrolidin-1-yl]-4-[(2-fluoro-4-methylphenyl)amino]-7-methoxycinnoline-3-carboxamide]
8.22 | COc1cc2nnc(C(N)=O)c(Nc3ccc(C)cc3F)c2cc1N1CCN(C[C@@H](O)CO)CC1 [Example 68, 6-{4-[(2R)-2,3-Dihydroxypropyl]piperazin-1-yl}-4-[(2-fluoro-4-methylphenyl)amino]-7-methoxycinnoline-3-carboxamide]
8.40 | COc1cc2nnc(C(N)=O)c(Nc3ccc(C)cc3F)c2cc1N1CCN(C(CO)CO)CC1 [Example 66, 4-[(2-Fluoro-4-methylphenyl)amino]-6-{4-[2-hydroxy-1-(hydroxymethyl)ethyl]piperazin-1-yl}-7-methoxycinnoline-3-carboxamide]
